The values that follow come from ChEMBL document CHEMBL3244121, “Esters of 4-[3-[2-(trifluoromethyl)phenothiazin-10-yl]propyl]-1-piperazieneethanol and related compounds as long-acting antipsychotic agents. Synthesis of the 1-adamantoate, the first crystalline base” (1977).

SMILES strings stand for the structures.

The test system of this assay is Rattus norvegicus. Description: Antipsychotic activity in albino rat assessed as duration of inhibition of conditioned avoidance behavior at 25 mg/kg administered intramuscularly. The class given is functional. To be noted: route intramuscular.
For the compound `CCCCCC(=O)OCCN1CCN(CCCN2c3ccccc3Sc3ccc(C(F)(F)F)cc32)CC1.Cl`, the Time was determined as 8 days.
The result for `CC(C)CCC(=O)OCCN1CCN(CCCN2c3ccccc3Sc3ccc(C(F)(F)F)cc32)CC1.Cl` reads 8 days; that for `CCCCCCCCCCCC(=O)OCCN1CCN(CCCN2c3ccccc3Sc3ccc(C(F)(F)F)cc32)CC1.Cl`, 28 days.
The result for `CCCCCCCCCCCCCC(=O)OCCN1CCN(CCCN2c3ccccc3Sc3ccc(C(F)(F)F)cc32)CC1.Cl` reads 28 days; that for `CCCCCCCCCC(=O)OCCN1CCN(CCCN2c3ccccc3Sc3ccc(C(F)(F)F)cc32)CC1` [FLUPHENAZINE DECANOATE], 12 days.
`CCCCCCC(=O)OCCN1CCN(CCCN2c3ccccc3Sc3ccc(C(F)(F)F)cc32)CC1` [FLUPHENAZINE ENANTHATE]: the Time came to 28 days.
